{
  "source": "patent US8476408B2",
  "about": "“Unacylated ghrelin and analogs as therapeutic agents for vascular remodeling in diabetic patients and treatment of cardiovascular disease” (Alize Pharma SAS, priority 2008, dated 2013)",
  "key": {"CAC [1]": {"system": "CAC", "assay": "CAC mobilization assay in healthy subjects and diabetic patients", "assay_type": "in vivo, human", "conditions": "diabetic patients compared to normal subjects, 6 hours treatment; FIG. 3B", "experimental": "All the subjects underwent the following testing session: • UAG (3.0 μg/kg/h iv. as infusion for 12 h from 0 to 12 hours); • isotonic saline (infusion from 0 to 12 hours).\nAll tests were performed starting at 08.30-09.00 a.m. after overnight fasting, 30 minutes after an indwelling catheter had been placed into a forearm vein by slow infusion of isotonic saline. Blood samples were taken at 0 h, 6 h and 12 h.\nMobilization assay—CAC recovered from healthy subjects and diabetic patients, treated with UAG or saline for 6 h and 12 h, were evaluated. Total number of MNC was counted by 3 independent investigators. The percentage of CAC was calculated by comparing CAC obtained from diabetic patients and healthy donors, treated for 6 h and 12 h with UAG, AG or saline, to CAC recovered at time 0."}, "CAC [2]": {"system": "CAC", "assay": "Detection of ROS in CAC (DCF-DA assay, FACS)", "assay_type": "cell-based, human", "conditions": "for baseline level of ROS production: compared to untreated cells, FIG. 1B, 1E", "experimental": "Peripheral-blood mononuclear cells (PB-MNC) isolated by Fycoll Histopaque 1077 (Sigma) were resuspended in 20% FBS 199 Medium and plated on fibronectin-coated dishes (Biocoat, Becton Dickinson Labware) as described by Hill et al. (Ref. 19). Human UAG studies were performed on CAC recovered from normal donors and diabetic patients. The purity of sorted cells was assessed by FACS analysis (Ref. 20). For experiments, the isolated CAC were cultured under 5% CO2 at 37° C. for 4 days on 20 μg/ml fibronectin-coated dishes in EGM-2 medium containing 10% FBS, hydrocortisone, human Fibroblast Growth Factor, Vascular Endothelial Growth Factor, Insulin Growth Factor 1, ascorbic acid, human Epidermal Growth Factor, gentamicin and amphotericin-B (Cambrex, Walkersville, Md., USA) alone or in combination with 1 μM UAG and 1.2 mg/ml AGE. In selected experiments, isolated CAC were cultured in EBM-2 medium (Cambrex, Walkersville, Md., USA) supplemented with 10 ng/ml of IL-3. FACS was used to analyze their phenotype (anti-CD45, anti-CD31, anti-CD105, anti-CD14 antibodies were used) (Ref. 22).\nDetection of ROS—DCF-DA (0.5 μM final concentration) was added to CAC in the indicated culture conditions. At the indicated times, the cells were subjected to FACS analysis and processed as previously described (Ret. 22). H2O2 was used as positive control."}, "[3]": {"system": "human microvascular endothelial cells (HMVECs)", "conditions": "Ref. 4; cited from earlier work"}, "human arteries": {"system": "human arteries", "conditions": "Ref. 35; cited from earlier work"}, "cardiomyocytes": {"system": "cardiomyocytes", "conditions": "Ref. 8; cited from earlier work"}, "[4]": {"system": "human umbilical vein endothelial cells (HUVECs)", "conditions": "Ref. 5; cited from earlier work"}, "HIT-T15 β-cells": {"system": "HIT-T15 β-cells", "assay": "Survival of cytokine-treated HIT-T15 β-cells (MTT)", "assay_type": "cell-based", "conditions": "cytokines (IFN-γ/TNF-α/IL-1β), peptides 1 nM to 100 nM", "experimental": "The survival effect of UAG (6-13) (SEQ ID NO: 6), UAG (8-13) (SEQ ID NO: 7), UAG (8-12) (SEQ ID NO: 8), UAG (8-11) (SEQ ID NO: 12), UAG (9-12) (SEQ ID NO: 9) and UAG (9-11) (SEQ ID NO: 10) was assessed in cytokine-treated HIT-T15 β-cells. […] The protective effects of peptides UAG (8-13) (SEQ ID NO: 7) and UAG (8-12) (SEQ ID NO: 8) were found similar to those of UAG (1-14) (SEQ ID NO: 2) and UAG (1-18) (SEQ ID NO: 3). A peptide made of the inverse sequence of UAG (1-14) (SEQ ID NO: 2) and named UAG (14-1) (SEQ ID NO: 11), was used as negative control for these experiments. […] These effects were however lower than those of UAG (6-13) (SEQ ID NO: 6)."}, "CAC membranes": {"system": "CAC membranes", "assay": "Competition binding with [125I-Tyr4]-UAG on CAC membranes", "set-up": "species or system human", "conditions": "100 nM unlabelled competitor, radioligand 0.25 nM; FIG. 5A", "description": "The specific binding of [^125I-Tyr^4]-UAG (calculated as difference between binding in the absence, control, and in the presence of UAG) represented about 75% of the control value (P<0.001) and was detected either on fresh (0.25 and 0.26 fmol) or frozen-thawed (0.20 and 0.33 fmol) CAC membranes from two different cell preparations."}, "cloned cells": {"system": "cloned cells", "conditions": "cited from earlier work"}, "GH secretion": {"system": "GH secretion", "conditions": "compared with Ghrelin-28; cited from earlier work"}},
  "note": "Where no end group is shown, it is not given here. The star is where a group is joined. Octanoyl = CCCCCCCC(=O)*",
  "data": [
    {"substance": "AG: 28 amino acid peptide with an n-octanoyl modification on the Ser3 residue; endogenous ligand of GHSR (GSS(Octanoyl)FLSPEHQRVQQRKESKKPPAKLQPR; listed as Homo sapiens) [reference compound]", "values": [
      {"measurement": "number of recovered CAC", "setting": "CAC [1]", "result": "No statistical differences"},
      {"measurement": "baseline level of ROS production", "setting": "CAC [2]", "result": "A protective effect failed to be detected"},
      {"measurement": "cell proliferation, migration, in vitro angiogenesis and ERK2 phosphorylation", "setting": "[3]", "result": "significantly increased cell proliferation, migration, in vitro angiogenesis and ERK2 phosphorylation"},
      {"measurement": "vasodilator action", "setting": "human arteries", "result": "vasodilator actions"},
      {"measurement": "experimentally-induced cell death", "setting": "cardiomyocytes", "result": "inhibit experimentally-induced cell death"},
      {"measurement": "basal and TNF-α-induced chemotactic cytokine production and mononuclear cell adhesion", "setting": "[4]", "result": "inhibit basal and TNF-α-induced chemotactic cytokine production and mononuclear cell adhesion"}
    ]},
    {"substance": "EHQRVQ [UAG (8-13)]", "values": [
      {"measurement": "survival effect on cytokine-induced cell death", "setting": "HIT-T15 β-cells", "result": "significant protective effect at all the concentrations examined"}
    ]},
    {"substance": "GSSFLSPEHQRVQQ [UAG (1-14)]", "values": [
      {"measurement": "survival effect on cytokine-induced cell death", "setting": "HIT-T15 β-cells", "result": "similar"}
    ]},
    {"substance": "GSSFLSPEHQRVQQRKES [UAG (1-18)]", "values": [
      {"measurement": "survival effect on cytokine-induced cell death", "setting": "HIT-T15 β-cells", "result": "similar"}
    ]},
    {"substance": "Glu-His-Gln-Arg-Val (EHQRV; listed as Homo sapiens) [UAG (8-12)]", "values": [
      {"measurement": "survival effect on cytokine-induced cell death", "setting": "HIT-T15 β-cells", "result": "significant, although reduced protection, only at 10 nM and 100 nM"}
    ]},
    {"substance": "Ser-Pro-Glu-His-Gln-Arg-Val-Gln (SPEHQRVQ; not fully specified (C-terminus); printed as Ser-Pro-Glu-His-Gln-Arg-Val-Gln; listed as Homo sapiens) [UAG (6-13)]", "values": [
      {"measurement": "survival effect on cytokine-induced cell death", "setting": "HIT-T15 β-cells", "result": "potently inhibited cytokine-induced cell death"},
      {"measurement": "inhibition of binding of [125I-Tyr4]-UAG to CAC membranes", "setting": "CAC membranes", "result": "inhibited"},
      {"measurement": "level of ROS production in AGE-cultured cells", "setting": "CAC [2]; AGE-cultured CAC, FIG. 1C, 1F", "result": "reduced"},
      {"measurement": "baseline level of ROS production", "setting": "CAC [2]", "result": "also reduces the baseline level of ROS production"}
    ]},
    {"substance": "UAG (8-11): fragment of unacylated ghrelin, residues 8 to 11 of SEQ ID NO: 1 (EHQR; listed as Homo sapiens)", "values": [
      {"measurement": "survival effect on cytokine-induced cell death", "setting": "HIT-T15 β-cells", "result": "significant survival effect only at 100 nM"}
    ]},
    {"substance": "UAG (9-11): fragment of unacylated ghrelin, residues 9 to 11 of SEQ ID NO: 1 (HQR)", "values": [
      {"measurement": "survival effect on cytokine-induced cell death", "setting": "HIT-T15 β-cells", "result": "no significant effect at both concentrations tested"}
    ]},
    {"substance": "UAG (9-12): fragment of unacylated ghrelin, residues 9 to 12 of SEQ ID NO: 1 (HQRV; listed as Homo sapiens)", "values": [
      {"measurement": "survival effect on cytokine-induced cell death", "setting": "HIT-T15 β-cells", "result": "significantly increased cell survival at both the concentrations tested"}
    ]},
    {"substance": "des Gln-14 Ghrelin: isoform of ghrelin-28, a 27 amino acid peptide possessing serine 3 modification by n-octanoic acid (GSS(Octanoyl)FLSPEHQRVQRKESKKPPAKLQPR; listed as Homo sapiens)", "values": [
      {"measurement": "Ca2+ fluxes", "setting": "cloned cells", "result": "elicits Ca^2+ fluxes in cloned cells"},
      {"measurement": "GH secretion", "setting": "GH secretion", "result": "induces GH secretion with similar potency as Ghrelin-28"}
    ]}
  ]
}
